# Laboratory results: paper PMC5078040 (Oncotarget, 2016)
# Columns and labels:
# MUSK = biological target: T1, MUSK (Homo sapiens, UniProt O15146); test: KinomeScan; format: binding; details: 1uM
# T1 construct: purchased DiscoveRx KINOMEscan
# GRK1 = biological target: T2, GRK1 (Homo sapiens, UniProt Q15835); test: KinomeScan; format: binding; details: 1uM
# T2 construct: purchased DiscoveRx KINOMEscan
# FYN = biological target: T3, FYN (Homo sapiens, UniProt P06241); test: KinomeScan; format: binding; details: 1uM
# T3 construct: purchased DiscoveRx KINOMEscan
# YSK4 = biological target: T4, YSK4 (Homo sapiens, UniProt Q56UN5); test: KinomeScan; format: binding; details: 1uM
# T4 construct: purchased DiscoveRx KINOMEscan
# FES = biological target: T5, FES (Homo sapiens, UniProt P07332); test: KinomeScan; format: binding; details: 1uM
# T5 construct: purchased DiscoveRx KINOMEscan
# FLT3(ITD) = test: KinomeScan; format: binding; details: 1uM
# RIOK3 = biological target: T6, RIOK3 (Homo sapiens, UniProt O14730); test: KinomeScan; format: binding; details: 1uM
# T6 construct: purchased DiscoveRx KINOMEscan
# PIP5K1A = biological target: T7, PIP5K1A (Homo sapiens, UniProt Q99755); test: KinomeScan; format: binding; details: 1uM
# T7 construct: purchased DiscoveRx KINOMEscan
# [1] = biological target: T8, RSK4(Kin.Dom.1-N-terminal) (Homo sapiens, UniProt Q9UK32); test: KinomeScan; format: binding; details: 1uM
# T8 construct: RSK4(Kin.Dom.1-N-terminal); purchased DiscoveRx KINOMEscan
# ACVR1 = biological target: T9, ACVR1 (Homo sapiens, UniProt Q04771); test: KinomeScan; format: binding; details: 1uM
# T9 construct: purchased DiscoveRx KINOMEscan
# PI3Kγ = PI3Kγ (Mus musculus, UniProt Q9JHG7); test: cell-based
# PI3Kγ, sequence (Q9JHG7 whole entry): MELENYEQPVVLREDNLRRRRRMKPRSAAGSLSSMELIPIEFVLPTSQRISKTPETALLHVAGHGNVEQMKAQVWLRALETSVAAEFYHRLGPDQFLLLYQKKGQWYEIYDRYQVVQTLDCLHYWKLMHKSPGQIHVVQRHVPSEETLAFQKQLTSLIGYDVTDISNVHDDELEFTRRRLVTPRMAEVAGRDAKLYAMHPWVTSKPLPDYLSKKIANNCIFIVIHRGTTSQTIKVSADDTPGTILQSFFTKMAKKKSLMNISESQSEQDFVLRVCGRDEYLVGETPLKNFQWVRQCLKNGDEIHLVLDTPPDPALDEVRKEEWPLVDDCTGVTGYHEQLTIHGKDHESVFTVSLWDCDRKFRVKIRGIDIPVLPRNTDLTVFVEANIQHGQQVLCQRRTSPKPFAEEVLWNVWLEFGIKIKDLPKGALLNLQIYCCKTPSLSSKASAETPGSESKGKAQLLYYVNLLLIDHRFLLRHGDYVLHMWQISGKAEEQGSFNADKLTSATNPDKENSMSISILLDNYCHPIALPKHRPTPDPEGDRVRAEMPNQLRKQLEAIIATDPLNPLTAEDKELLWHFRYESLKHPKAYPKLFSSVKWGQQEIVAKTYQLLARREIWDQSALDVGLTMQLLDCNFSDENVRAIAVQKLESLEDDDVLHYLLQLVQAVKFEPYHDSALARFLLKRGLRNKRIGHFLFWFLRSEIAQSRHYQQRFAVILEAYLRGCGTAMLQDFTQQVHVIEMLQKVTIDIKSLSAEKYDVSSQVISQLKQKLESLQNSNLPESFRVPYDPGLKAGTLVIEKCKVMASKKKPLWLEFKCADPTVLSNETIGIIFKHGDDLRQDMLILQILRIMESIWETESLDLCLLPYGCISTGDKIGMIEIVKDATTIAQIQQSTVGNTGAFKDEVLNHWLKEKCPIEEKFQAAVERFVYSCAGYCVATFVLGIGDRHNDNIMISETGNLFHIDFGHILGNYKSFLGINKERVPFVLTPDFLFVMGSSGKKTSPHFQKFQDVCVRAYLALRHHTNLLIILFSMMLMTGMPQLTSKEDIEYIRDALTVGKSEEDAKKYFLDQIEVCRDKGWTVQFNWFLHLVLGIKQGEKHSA
# TGFBR1 = biological target: T10, TGFBR1 (Homo sapiens, UniProt P36897); test: KinomeScan; format: binding; details: 1uM
# T10 construct: purchased DiscoveRx KINOMEscan
# PRKCQ = biological target: T11, PRKCQ (Homo sapiens, UniProt Q04759); test: KinomeScan; format: binding; details: 1uM
# T11 construct: purchased DiscoveRx KINOMEscan
# T11 sequence (Q04759 whole entry): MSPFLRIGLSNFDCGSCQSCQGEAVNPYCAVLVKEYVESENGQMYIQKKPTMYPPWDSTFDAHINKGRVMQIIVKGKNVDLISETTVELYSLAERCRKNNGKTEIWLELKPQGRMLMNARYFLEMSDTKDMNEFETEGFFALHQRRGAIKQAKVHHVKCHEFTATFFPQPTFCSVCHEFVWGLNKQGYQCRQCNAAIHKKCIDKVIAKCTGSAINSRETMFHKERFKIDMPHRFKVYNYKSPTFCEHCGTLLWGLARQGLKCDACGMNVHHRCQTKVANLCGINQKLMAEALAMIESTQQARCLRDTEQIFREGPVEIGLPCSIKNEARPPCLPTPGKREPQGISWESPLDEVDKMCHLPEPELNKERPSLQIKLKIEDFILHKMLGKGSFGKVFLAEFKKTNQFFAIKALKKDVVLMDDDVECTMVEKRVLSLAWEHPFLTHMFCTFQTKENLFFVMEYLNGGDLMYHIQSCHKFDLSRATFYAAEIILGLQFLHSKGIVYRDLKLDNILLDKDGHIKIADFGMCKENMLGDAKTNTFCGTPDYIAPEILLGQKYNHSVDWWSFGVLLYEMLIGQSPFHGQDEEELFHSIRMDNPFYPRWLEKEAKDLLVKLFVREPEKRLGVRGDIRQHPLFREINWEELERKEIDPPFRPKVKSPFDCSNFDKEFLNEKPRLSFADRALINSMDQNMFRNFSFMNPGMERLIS
# MKNK2 = biological target: T12, MKNK2 (Homo sapiens, UniProt Q9HBH9); test: KinomeScan; format: binding; details: 1uM
# T12 construct: purchased DiscoveRx KINOMEscan
# RIPK2 = biological target: T13, RIPK2 (Homo sapiens, UniProt O43353); test: KinomeScan; format: binding; details: 1uM
# T13 construct: purchased DiscoveRx KINOMEscan
# [2] = biological target: T14, RPS6KA4(Kin.Dom.1-N-terminal) (Homo sapiens, UniProt O75676); test: KinomeScan; format: binding; details: 1uM
# T14 construct: RPS6KA4(Kin.Dom.1-N-terminal); purchased DiscoveRx KINOMEscan
# DRAK1 = biological target: T15, DRAK1 (Homo sapiens, UniProt Q9UEE5); test: KinomeScan; format: binding; details: 1uM
# T15 construct: purchased DiscoveRx KINOMEscan
# MEK3 = biological target: T16, MEK3 (Homo sapiens, UniProt P46734); test: KinomeScan; format: binding; details: 1uM
# T16 construct: purchased DiscoveRx KINOMEscan
# FGFR3(G697C) = biological target: T17, FGFR3(G697C) (Homo sapiens, UniProt P22607, G697C); test: KinomeScan; format: binding; details: 1uM
# T17 construct: purchased DiscoveRx KINOMEscan
# [3] = biological target: T18, ABL1(H396P)-phosphorylated (Homo sapiens, UniProt P00519, H396P); test: KinomeScan; format: binding; details: 1uM
# T18 construct: purchased DiscoveRx KINOMEscan
# LKB1 = biological target: T19, LKB1 (Homo sapiens, UniProt Q15831); test: KinomeScan; format: binding; details: 1uM
# T19 construct: purchased DiscoveRx KINOMEscan
# STK36 = biological target: T20, STK36 (Homo sapiens, UniProt Q9NRP7); test: KinomeScan; format: binding; details: 1uM
# T20 construct: purchased DiscoveRx KINOMEscan
# YANK3 = biological target: T21, YANK3 (Homo sapiens, UniProt Q86UX6); test: KinomeScan; format: binding; details: 1uM
# T21 construct: purchased DiscoveRx KINOMEscan
# CSNK1E = biological target: T22, CSNK1E (Homo sapiens, UniProt P49674); test: KinomeScan; format: binding; details: 1uM
# T22 construct: purchased DiscoveRx KINOMEscan
# BRSK1 = biological target: T23, BRSK1 (Homo sapiens, UniProt Q8TDC3); test: KinomeScan; format: binding; details: 1uM
# T23 construct: purchased DiscoveRx KINOMEscan
# MKK7 = biological target: T24, MKK7 (Homo sapiens, UniProt O14733); test: KinomeScan; format: binding; details: 1uM
# T24 construct: purchased DiscoveRx KINOMEscan
# PHKG2 = biological target: T25, PHKG2 (Homo sapiens, UniProt P15735); test: KinomeScan; format: binding; details: 1uM
# T25 construct: purchased DiscoveRx KINOMEscan
# T25 sequence (P15735 whole entry): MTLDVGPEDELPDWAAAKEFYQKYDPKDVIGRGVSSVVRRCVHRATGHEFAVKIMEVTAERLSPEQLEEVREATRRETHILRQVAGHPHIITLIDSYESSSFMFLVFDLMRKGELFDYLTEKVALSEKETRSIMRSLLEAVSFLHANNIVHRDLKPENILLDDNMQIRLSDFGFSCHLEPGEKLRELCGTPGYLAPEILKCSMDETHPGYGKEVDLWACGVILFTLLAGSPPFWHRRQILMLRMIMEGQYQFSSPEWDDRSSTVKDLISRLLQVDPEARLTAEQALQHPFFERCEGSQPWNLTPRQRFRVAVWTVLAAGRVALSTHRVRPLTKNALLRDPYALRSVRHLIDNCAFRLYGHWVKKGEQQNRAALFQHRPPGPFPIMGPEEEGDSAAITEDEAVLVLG
# STK16 = biological target: T26, STK16 (Homo sapiens, UniProt O75716); test: KinomeScan; format: binding; details: 1uM
# T26 construct: purchased DiscoveRx KINOMEscan
# HIPK1 = biological target: T27, HIPK1 (Homo sapiens, UniProt Q86Z02); test: KinomeScan; format: binding; details: 1uM
# T27 construct: purchased DiscoveRx KINOMEscan
# ERK1 = biological target: T28, ERK1 (Homo sapiens, UniProt P27361); test: KinomeScan; format: binding; details: 1uM
# T28 construct: purchased DiscoveRx KINOMEscan
# T28 sequence (P27361 whole entry): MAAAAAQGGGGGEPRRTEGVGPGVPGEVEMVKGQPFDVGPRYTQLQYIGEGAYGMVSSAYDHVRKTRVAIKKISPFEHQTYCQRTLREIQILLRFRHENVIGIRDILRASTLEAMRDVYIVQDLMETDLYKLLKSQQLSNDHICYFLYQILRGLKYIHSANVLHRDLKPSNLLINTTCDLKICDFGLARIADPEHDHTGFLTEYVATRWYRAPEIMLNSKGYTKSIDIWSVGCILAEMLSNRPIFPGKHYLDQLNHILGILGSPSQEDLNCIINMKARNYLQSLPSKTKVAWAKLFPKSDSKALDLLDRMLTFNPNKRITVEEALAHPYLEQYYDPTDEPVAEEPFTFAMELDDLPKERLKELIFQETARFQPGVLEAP
# SRPK3 = biological target: T29, SRPK3 (Homo sapiens, UniProt Q9UPE1); test: KinomeScan; format: binding; details: 1uM
# T29 construct: purchased DiscoveRx KINOMEscan
# PIK3C2B = biological target: T30, PIK3C2B (Homo sapiens, UniProt O00750); test: KinomeScan; format: binding; details: 1uM
# T30 construct: purchased Invitrogen
# PIK3CA(C420R) = biological target: T31, PIK3CA(C420R) (Homo sapiens, UniProt P42336, C420R); test: KinomeScan; format: binding; details: 1uM
# T31 construct: purchased DiscoveRx KINOMEscan
# EPHA7 = biological target: T32, EPHA7 (Homo sapiens, UniProt Q15375); test: KinomeScan; format: binding; details: 1uM
# T32 construct: purchased DiscoveRx KINOMEscan
# T32 sequence (Q15375 28-998): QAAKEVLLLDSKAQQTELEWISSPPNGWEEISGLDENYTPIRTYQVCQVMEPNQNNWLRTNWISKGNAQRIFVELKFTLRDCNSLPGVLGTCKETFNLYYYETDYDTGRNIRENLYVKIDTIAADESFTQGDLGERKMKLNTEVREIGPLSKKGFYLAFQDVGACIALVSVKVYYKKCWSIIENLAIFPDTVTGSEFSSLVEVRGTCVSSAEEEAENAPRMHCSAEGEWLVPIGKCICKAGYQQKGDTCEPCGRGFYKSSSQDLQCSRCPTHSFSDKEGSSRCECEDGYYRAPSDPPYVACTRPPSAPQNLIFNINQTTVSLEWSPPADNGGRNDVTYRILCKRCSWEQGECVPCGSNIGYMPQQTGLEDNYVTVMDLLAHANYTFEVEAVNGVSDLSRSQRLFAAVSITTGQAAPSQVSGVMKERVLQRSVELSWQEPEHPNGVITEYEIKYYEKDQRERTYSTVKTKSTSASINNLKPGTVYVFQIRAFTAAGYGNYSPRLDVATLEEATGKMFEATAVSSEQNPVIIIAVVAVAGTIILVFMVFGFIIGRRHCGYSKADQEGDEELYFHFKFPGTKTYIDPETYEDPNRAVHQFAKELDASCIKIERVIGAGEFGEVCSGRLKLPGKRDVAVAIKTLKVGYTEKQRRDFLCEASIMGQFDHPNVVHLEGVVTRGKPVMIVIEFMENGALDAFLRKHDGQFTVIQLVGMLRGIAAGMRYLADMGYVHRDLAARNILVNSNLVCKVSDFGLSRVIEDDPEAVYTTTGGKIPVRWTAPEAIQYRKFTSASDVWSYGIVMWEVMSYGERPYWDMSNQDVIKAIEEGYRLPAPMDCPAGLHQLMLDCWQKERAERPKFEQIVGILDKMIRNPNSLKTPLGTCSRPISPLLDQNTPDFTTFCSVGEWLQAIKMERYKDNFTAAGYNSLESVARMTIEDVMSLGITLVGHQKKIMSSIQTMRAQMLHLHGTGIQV
# PRKCE = biological target: T33, PRKCE (Homo sapiens, UniProt Q02156); test: KinomeScan; format: binding; details: 1uM
# T33 construct: purchased DiscoveRx KINOMEscan
# CDKL3 = biological target: T34, CDKL3 (Homo sapiens, UniProt Q8IVW4); test: KinomeScan; format: binding; details: 1uM
# T34 construct: purchased DiscoveRx KINOMEscan
# AXL = biological target: T35, AXL (Homo sapiens, UniProt P30530); test: KinomeScan; format: binding; details: 1uM
# T35 construct: purchased DiscoveRx KINOMEscan
# BTK = biological target: T36, BTK (Homo sapiens, UniProt Q06187); test: KinomeScan; format: binding; details: 1uM
# T36 construct: purchased DiscoveRx KINOMEscan
# PI3Kδ = PI3Kδ (Homo sapiens, UniProt O00329); test: PI3Ks isoform in cell EC50 assay (AKT phosphorylation, Western Blotting); format: cell-based; set-up: endogenous in cells; host or cells: Raji; details: Raji cells, 1μg/ml anti-IgM, Akt phosphorylation at T308; read-out: cellular EC50 PI3K Delta
# LTK = biological target: T37, LTK (Homo sapiens, UniProt P29376); test: KinomeScan; format: binding; details: 1uM
# T37 construct: purchased DiscoveRx KINOMEscan
# T37 sequence (P29376 17-864): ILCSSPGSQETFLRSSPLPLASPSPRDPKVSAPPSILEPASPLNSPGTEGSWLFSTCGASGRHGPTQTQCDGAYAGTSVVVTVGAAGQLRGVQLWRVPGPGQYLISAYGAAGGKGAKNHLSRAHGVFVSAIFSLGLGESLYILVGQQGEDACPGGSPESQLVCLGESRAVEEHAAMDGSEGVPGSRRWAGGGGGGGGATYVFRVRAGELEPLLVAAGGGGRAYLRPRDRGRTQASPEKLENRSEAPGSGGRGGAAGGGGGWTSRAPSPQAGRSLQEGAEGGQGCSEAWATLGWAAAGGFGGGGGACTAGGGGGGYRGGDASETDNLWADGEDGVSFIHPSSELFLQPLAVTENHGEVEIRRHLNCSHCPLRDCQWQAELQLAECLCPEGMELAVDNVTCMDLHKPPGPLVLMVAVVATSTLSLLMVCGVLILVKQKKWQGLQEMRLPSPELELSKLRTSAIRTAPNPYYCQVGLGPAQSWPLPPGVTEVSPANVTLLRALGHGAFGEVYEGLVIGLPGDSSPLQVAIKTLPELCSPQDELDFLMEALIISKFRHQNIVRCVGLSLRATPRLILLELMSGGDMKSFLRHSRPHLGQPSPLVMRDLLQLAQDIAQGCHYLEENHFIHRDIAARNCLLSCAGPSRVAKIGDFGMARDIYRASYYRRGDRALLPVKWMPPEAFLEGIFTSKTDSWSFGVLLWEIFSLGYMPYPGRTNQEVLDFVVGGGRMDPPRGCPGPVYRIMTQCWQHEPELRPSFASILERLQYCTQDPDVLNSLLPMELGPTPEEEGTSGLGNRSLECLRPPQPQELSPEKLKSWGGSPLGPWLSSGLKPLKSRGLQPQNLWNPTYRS
# STK35 = biological target: T38, STK35 (Homo sapiens, UniProt Q8TDR2); test: KinomeScan; format: binding; details: 1uM
# T38 construct: purchased DiscoveRx KINOMEscan
# EPHA1 = biological target: T39, EPHA1 (Homo sapiens, UniProt P21709); test: KinomeScan; format: binding; details: 1uM
# T39 construct: purchased DiscoveRx KINOMEscan
# T2 sequence (Q15835 whole entry): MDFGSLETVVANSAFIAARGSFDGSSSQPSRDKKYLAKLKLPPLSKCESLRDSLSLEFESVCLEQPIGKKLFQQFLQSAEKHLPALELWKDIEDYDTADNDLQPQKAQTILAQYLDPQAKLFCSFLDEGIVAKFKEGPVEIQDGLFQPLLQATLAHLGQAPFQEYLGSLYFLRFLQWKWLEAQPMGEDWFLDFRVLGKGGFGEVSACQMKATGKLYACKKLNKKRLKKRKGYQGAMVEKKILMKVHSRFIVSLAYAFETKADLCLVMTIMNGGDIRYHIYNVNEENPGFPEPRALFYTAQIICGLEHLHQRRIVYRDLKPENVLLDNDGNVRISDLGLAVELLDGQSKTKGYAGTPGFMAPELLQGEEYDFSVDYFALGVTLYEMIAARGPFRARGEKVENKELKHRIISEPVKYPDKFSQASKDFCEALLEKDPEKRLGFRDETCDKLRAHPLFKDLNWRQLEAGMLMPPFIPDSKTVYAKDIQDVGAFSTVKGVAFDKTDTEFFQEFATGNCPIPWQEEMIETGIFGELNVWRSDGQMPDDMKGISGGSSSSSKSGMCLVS
smiles,measurement,setting,value
Cc1nc(NC(=O)[C@@H](N)C(C)C)sc1-c1cnc(Cl)c(NS(=O)(=O)c2ccccc2)c1 [PI3KD-IN-015],KinomeScan MUSK,MUSK,96
same,KinomeScan GRK1,GRK1,99
same,KinomeScan FYN,FYN,100
same,KinomeScan YSK4,YSK4,100
same,KinomeScan FES,FES,100
same,KinomeScan FLT3(ITD),FLT3(ITD),100
same,KinomeScan RIOK3,RIOK3,96
same,KinomeScan PIP5K1A,PIP5K1A,84
same,KinomeScan RSK4(Kin.Dom.1-N-terminal),[1],100
same,KinomeScan ACVR1,ACVR1,100
same,EC50,PI3Kγ,> 3000 nM
same,KinomeScan TGFBR1,TGFBR1,97
same,KinomeScan PRKCQ,PRKCQ,100
same,KinomeScan MKNK2,MKNK2,98
same,KinomeScan RIPK2,RIPK2,98
same,KinomeScan RPS6KA4(Kin.Dom.1-N-terminal),[2],86
same,KinomeScan DRAK1,DRAK1,91
same,KinomeScan MEK3,MEK3,93
same,KinomeScan FGFR3(G697C),FGFR3(G697C),100
same,KinomeScan ABL1(H396P)-phosphorylated,[3],78
same,KinomeScan LKB1,LKB1,79
same,KinomeScan STK36,STK36,100
same,KinomeScan YANK3,YANK3,97
same,KinomeScan CSNK1E,CSNK1E,100
same,KinomeScan BRSK1,BRSK1,100
same,KinomeScan MKK7,MKK7,98
same,KinomeScan PHKG2,PHKG2,91
same,KinomeScan STK16,STK16,91
same,KinomeScan HIPK1,HIPK1,96
same,KinomeScan ERK1,ERK1,100
same,KinomeScan SRPK3,SRPK3,100
same,KinomeScan PIK3C2B,PIK3C2B,2.2
same,KinomeScan PIK3CA(C420R),PIK3CA(C420R),4.5
same,KinomeScan EPHA7,EPHA7,100
same,KinomeScan PRKCE,PRKCE,100
same,KinomeScan CDKL3,CDKL3,100
same,KinomeScan AXL,AXL,97
same,KinomeScan BTK,BTK,81
same,EC50,PI3Kδ,13 nM
same,KinomeScan LTK,LTK,100
same,KinomeScan STK35,STK35,92
same,KinomeScan EPHA1,EPHA1,100
